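Method: 48-hour compound exposure of cells in 96-well plates, five concentrations, linear interpolation of endpoints. GI50 marks 50% less growth.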 Activity calls are given as the source filed them. Rule as the data show it: active = GI50 up to about 1.1 µM and inactive = higher.
Key:
Experiment in all cases: DTP human tumour cell line panel, 48 h
A549 = test system: A549
DU-145 = test system: DU-145
HCT-15 = test system: HCT-15
HL-60 = test system: HL-60
HOP-92 = test system: HOP-92
Hs-578T = test system: Hs-578T
M14 = test system: M14
NCI-H460 = test system: NCI-H460
OVCAR-3 = test system: OVCAR-3
OVCAR-8 = test system: OVCAR-8
RXF 393 = test system: RXF 393
SF-268 = test system: SF-268
SF-295 = test system: SF-295
SF-539 = test system: SF-539
SK-MEL-5 = test system: SK-MEL-5
SN12C = test system: SN12C
SNB-75 = test system: SNB-75
UACC-62 = test system: UACC-62
SW-620 = test system: SW-620
T47D = test system: T47D

Structure (SMILES) | GI50 (A549) | GI50 (DU-145) | GI50 (HCT-15) | GI50 (HL-60) | GI50 (HOP-92) | GI50 (Hs-578T) | GI50 (M14) | GI50 (NCI-H460) | GI50 (OVCAR-3) | GI50 (OVCAR-8) | GI50 (RXF 393) | GI50 (SF-268) | GI50 (SF-295) | GI50 (SF-539) | GI50 (SK-MEL-5) | GI50 (SN12C) | GI50 (SNB-75) | GI50 (UACC-62) | GI50 (SW-620) | GI50 (T47D)
Nc1ccc2c(c1)NCCN2 | 18.2 µM (inactive) | 25.7 µM (inactive) | 61.9 µM | 9.71 µM (inactive) | > 100 µM (inactive) | 7.76 µM (inactive) | 73.1 µM (inactive) | 4.39 µM (inactive) | > 100 µM (inactive) | 50.9 µM (inactive) | > 100 µM (inactive) | 56.5 µM (inactive) | 64.1 µM (inactive) | 14.7 µM (inactive) | 5.11 µM (inactive) | 48.8 µM (inactive) | > 100 µM (inactive) | 5.13 µM (inactive) | – | –
Sc1nn2c(COc3ccc(Cl)cc3)nnc2s1 | > 100 µM (inactive) | > 100 µM (inactive) | 81.8 µM | > 100 µM (inactive) | > 100 µM (inactive) | – | > 100 µM (inactive) | > 100 µM (inactive) | > 100 µM (inactive) | > 100 µM (inactive) | > 100 µM (inactive) | > 100 µM (inactive) | > 100 µM (inactive) | > 100 µM (inactive) | > 100 µM (inactive) | > 100 µM (inactive) | > 100 µM (inactive) | > 100 µM (inactive) | > 100 µM (inactive) | > 100 µM (inactive)
COC(=O)CCCc1nc2ccccc2nc1/N=N/c1ccccc1 | 29.9 µM (inactive) | 48.3 µM (inactive) | 23.9 µM | 2.57 µM (inactive) | > 100 µM (inactive) | – | 27.6 µM (inactive) | 49.8 µM (inactive) | 31.3 µM (inactive) | 22 µM (inactive) | 62.5 µM (inactive) | 51.2 µM (inactive) | 41 µM (inactive) | 70.8 µM (inactive) | 61.1 µM (inactive) | 51.5 µM (inactive) | 38.5 µM (inactive) | > 100 µM (inactive) | 47.5 µM (inactive) | 45.7 µM (inactive)
CCSC1SC(c2ccccc2)(c2ccccc2)c2ccccc21 (stereo not drawn) | 46 µM (inactive) | 64.7 µM (inactive) | 42.1 µM | – | 30.8 µM (inactive) | 54.3 µM (inactive) | 31.2 µM (inactive) | 36.9 µM (inactive) | 23.8 µM (inactive) | 64.7 µM (inactive) | 19.5 µM (inactive) | 93.1 µM (inactive) | 70 µM (inactive) | > 100 µM (inactive) | 26.4 µM (inactive) | 38.3 µM (inactive) | 87.9 µM (inactive) | 53.6 µM (inactive) | 54.8 µM (inactive) | –
CSc1cc(Br)ccc1-n1c(C(=O)c2ccccc2)c(SC)n(-c2ccccc2)c1=O | > 100 µM (inactive) | – | 23 µM | – | > 100 µM (inactive) | > 100 µM (inactive) | 96.2 µM (inactive) | 50.9 µM (inactive) | > 100 µM (inactive) | > 100 µM (inactive) | – | > 100 µM (inactive) | 84.5 µM (inactive) | > 100 µM (inactive) | 67.8 µM (inactive) | > 100 µM (inactive) | > 100 µM (inactive) | > 100 µM (inactive) | 19 µM (inactive) | –
COC(=O)C(=O)C(C(=O)C(=O)Nc1ccc(Cl)cc1Cl)c1nc2ccc(Cl)cc2nc1O (stereo not drawn) | > 100 µM (inactive) | > 100 µM (inactive) | > 100 µM | > 100 µM (inactive) | 58.5 µM (inactive) | > 100 µM (inactive) | > 100 µM (inactive) | > 100 µM (inactive) | > 100 µM (inactive) | > 100 µM (inactive) | – | > 100 µM (inactive) | > 100 µM (inactive) | > 100 µM (inactive) | > 100 µM (inactive) | > 100 µM (inactive) | 65.2 µM (inactive) | > 100 µM (inactive) | > 100 µM (inactive) | –
